The text below walks through data of patent US10968193B2, “Antidiabetic bicyclic compounds” (Merck Sharp & Dohme Corp., priority 2014, dated 2021).

This test addresses T1, human GPR40 (Homo sapiens, UniProt O14842).
T1 construct: expressed in transfected cells; host or cells: HEK cells stably expressing the aequorin reporter
The experiment in a line: Inositol Phosphate Turnover (IP1) Assay 1. It counts as cell-based. Particulars: HEK cells stably expressing human GPR40; 15,000 cells per well; compound transferred via pocket tip; CisBio IP-One kit. On the procedure:
Human and mouse GPR40 stable cell-lines were generated in CHO cells stably expressing NFAT BLA (Beta-lactamase). A human GPR40 stable cell-line was generated in HEK cells stably expressing the aequorin expressing reporter. The expression plasmids were transfected using lipofectamine (Life Technologies) following manufacturer's instructions. Stable cell-lines were generated following drug selection.
Inositol Phosphate Turnover (IP1) Assay 1:
The assay was performed in 384-well format. HEK cells stably expressing human GPR40 were plated at 15,000 cells per well in growth medium (DMEM/10% fetal calf serum). Cell plates were then incubated 16 hours at 37 degrees in a 5% CO2 incubator.
Measurement of Inositol Phosphate Turnover (IP1) was performed using the CisBio IP-One kit (Part number 62IPAPEB). After the 16 hour incubation, the cells were washed with HEPES buffer and 10 ul of stimulation buffer (prepared as described in the kit) is added to each well. In a separate plate, compounds were diluted in DMSO (400-fold over the final concentration in the assay well) and 25 nl was transferred via pocket tip to the appropriate well in the assay cell plate. The plates were then incubated for 60 minutes at 37 degrees. 10 ul of detection buffer (also prepared as described in the IP-One kit) was added to each well and the plates were incubated for 60 minutes in the dark. The plates were then read in a Perkin Elmer EnVision or equivalent reader able to measure FRET. Fluorescent ratio of emission at 665 and 620 nm was then converted to IP1 concentration by back calculating from an IP1 standard curve prepared at the time of the assay.

T1 sequence (O14842 whole entry): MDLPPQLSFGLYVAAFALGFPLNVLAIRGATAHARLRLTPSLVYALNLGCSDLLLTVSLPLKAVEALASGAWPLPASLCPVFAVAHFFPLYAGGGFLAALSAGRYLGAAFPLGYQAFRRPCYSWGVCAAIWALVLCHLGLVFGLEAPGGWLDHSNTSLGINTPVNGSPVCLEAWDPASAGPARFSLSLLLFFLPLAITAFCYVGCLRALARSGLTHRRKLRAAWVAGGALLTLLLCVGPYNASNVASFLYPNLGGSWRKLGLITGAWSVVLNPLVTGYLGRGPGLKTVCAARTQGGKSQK

The molecule `COc1ccc(F)c(-c2ccc(C3CCc4ccc([C@H](C5CC5)[C@H](C)C(=O)O)cc4O3)cc2CN)c1` (mixture of isomers) [Example 2] returned an EC50 of 2990 nM. In other words, the single-digit micromolar range. `COc1cc(-c2ccc(C3CCc4ccc([C@H](C5CC5)[C@H](C)C(=O)O)cc4O3)cc2CN2CCC2)c(F)cn1` (mixture of isomers) [Example 10] registered an EC50 of 193 nM.

For `COc1cc(-c2ccc(C3CCc4ccc([C@H](C5CC5)[C@H](C)C(=O)O)cc4O3)cc2CN(C)C)c(F)cn1` (stereo partly drawn) [Example 1, (2S,3R)-3-cyclopropyl-3-(2-(3-((dimethylamino)methyl)-4-(5-fluoro-2-methoxypyridin-4-yl)phenyl)chroman-7-yl)-2-methylpropanoic acid], the half-maximal effective concentration (EC50) stood at 8.6 nM.

The molecule `COc1cc(-c2ccc(C3CCc4ccc([C@H](C5CC5)[C@H](C)C(=O)O)cc4O3)cc2C(C)N(C)C)c(F)cn1` (stereo partly shown) [Example 3] displayed an EC50 of 18 nM.
